Experimental data taken from patent US6673791B2, “Non-nucleoside reverse transcriptase inhibitors” (Boehringer Ingelheim (Canada) Ltd., priority 2001, dated 2004).
Read-outs that look alike come from different tables or passages of the source.

Tests used:
[1] = molecular target: T1, K103N/Y181C double mutant RT (HIV-1 RT) (Human immunodeficiency virus type 1 group M subtype B, UniProt P03366, K702N/Y780C); experiment: biochemical
T1 construct: mutations that occur in the reverse transcriptase segment of the pol gene
Text: (§1) Based upon testing of these compounds, as described below, it is known that they inhibit the RNA-dependent DNA polymerase activity of HIV-1 RT. […] Utilising the Reverse Transcriptase (RT) Assay described below, compounds can be tested for their ability to inhibit the RNA-dependent DNA polymerase activity of HIV-1 RT. Certain specific compounds described in the Examples which appear below, were so tested. The results of this testing appear in Table 4 as IC50 (nM) and Table 5 as EC50 (nM).
(§2) Reverse TranscriptASE (RT) Assays
(§3) The assays are as described in WO 01/96338A1, the contents of which are hereby incorporated herein. The results are listed in Tables 8 as IC50(nM) and EC50(nM).

WT RT (HIV-1 RT) = molecular target: T2, WT RT (HIV-1 RT) (Human immunodeficiency virus type 1 group M subtype B, UniProt P03366); experiment: biochemical
T2 construct: mutations that occur in the reverse transcriptase segment of the pol gene
Text: as §1, §2, §3

[2] = molecular target: T3, V106A mutant RT (HIV-1 RT) (Human immunodeficiency virus type 1 group M subtype B, UniProt P03366, V705A); experiment: biochemical
T3 construct: mutations that occur in the reverse transcriptase segment of the pol gene
Text: as §1, §2, §3

[3] = molecular target: T4, Y188L mutant RT (HIV-1 RT) (Human immunodeficiency virus type 1 group M subtype B, UniProt P03366, Y787L); experiment: biochemical
T4 construct: mutations that occur in the reverse transcriptase segment of the pol gene
Text: as §1, §2, §3

[4] = test system: WT RT (HIV-1 wild type strain); experiment: EC50 assay, WT RT strain; assay type: cell-based
Text: as §2, §3

[5] = test system: K103N/Y181C (HIV-1 double mutant strain); experiment: EC50 assay, K103N/Y181C strain; assay type: cell-based
Text: as §2, §3

[6] = read-out: IC50 K103N/Y181C, K103N/Y181C double mutant RT
[7] = read-out: IC50 WT RT, wild type RT
[8] = Human immunodeficiency virus 1, read-out: EC50 WT RT (nM)
[9] = Human immunodeficiency virus 1, read-out: EC50 K103N/Y181C (nM), K103N/Y181C double mutant
[10] = K103N/Y181C double mutant RT, read-out: IC50 K103N/Y181C

SMILES | IC50 [1] [nM] | IC50 (WT RT (HIV-1 RT)) [nM] | IC50 ([2]; IC50 V106A (nM)) [nM] | IC50 ([3]; IC50 Y188L (nM)) [nM] | further results
CCN1c2ncc(CCOc3ccc(/C=C/C(=O)O)c4ccccc34)cc2C(=O)N(C)c2ccc(Cl)nc21 [Entry 2016] | – | – | – | – | IC50 [1, 6]: 100 to 1000 nM; IC50 (WT RT (HIV-1 RT); [7]): < 100 nM; IC50 ([2]; read-out: IC50 V106A): 100 to 1000 nM; IC50 ([3]; read-out: IC50 Y188L): 100 to 1000 nM; EC50 ([4]; read-out: EC50 WT RT, wild type): < 100 nM; EC50 ([5]; read-out: EC50 K103N/Y181C, K103N/Y181C double mutant): 100 to 1000 nM
CCN1c2ncc(CCOc3ccc(CC(=O)O)c4ccccc34)cc2C(=O)N(C)c2ccc(Cl)nc21 [Entry 1010] | 100 to 1000 | < 100 | > 1000 | > 1000 | EC50 [4, 8]: < 100 nM; EC50 [5, 9]: < 100 nM
CCN1c2ncc(CCOc3ccc(/C=C/C(=O)O)c4ccccc34)cc2C(=O)N(C)c2ccc(C)nc21 [Entry 2017] | – | – | > 1000 | > 1000 | IC50 [1, 6]: 100 to 1000 nM; IC50 (WT RT (HIV-1 RT); [7]): < 100 nM
CCN1c2ncc(CCOc3ccc(C(=O)O)c4c3CCCC4)cc2C(=O)N(C)c2ccc(OC)nc21 [Entry 5005] | 100 to 1000 | < 100 | > 1000 | 100 to 1000 | EC50 [4, 8]: < 100 nM; EC50 [5, 9]: < 100 nM
CCN1c2ncc(CCOc3ccc(NS(C)(=O)=O)c4ccccc34)cc2C(=O)N(C)c2cccnc21 [Entry 2003] | 100 to 1000 | < 100 | > 1000 | > 1000 | EC50 [5, 9]: < 100 nM
CCN1c2ncc(CCOc3ccc(CC(=O)NN)c4ccccc34)cc2C(=O)N(C)c2ccc(NN)nc21 [Entry 1017] | – | < 100 | – | – | –
CCN1c2ncc(CCOc3ccc(C(=O)O)c4c3CCC4)cc2C(=O)N(C)c2ccc(Cl)nc21 [Entry 4002] | < 100 | < 100 | 100 to 1000 | 100 to 1000 | EC50 [4, 8]: < 100 nM; EC50 [5, 9]: < 100 nM
CCN1c2ncc(CCOc3ccc(C(=O)O)c4c3CCN(C(C)=O)C4)cc2C(=O)N(C)c2cccnc21 [Entry 7004] | 100 to 1000 | < 100 | > 1000 | > 1000 | EC50 [4, 8]: 100 to 1000 nM
CCN1c2ncc(CCOc3ccc(/C=C/C(=O)O)c4ccccc34)cc2C(=O)Nc2c(C)cc(F)nc21 [Entry 2015] | – | – | 100 to 1000 | – | IC50 [1, 6]: 100 to 1000 nM; IC50 (WT RT (HIV-1 RT); [7]): < 100 nM; IC50 ([3]; read-out: IC50 Y188L): > 1000 nM
CCN1c2ncc(CCOc3ccc(CC(N)=O)c4ccccc34)cc2C(=O)N(C)c2cccnc21 [Entry 1018] | < 100 | < 100 | 100 to 1000 | > 1000 | –
CCN1c2ncc(CCOc3ccc(CC(=O)NS(C)(=O)=O)c4ccccc34)cc2C(=O)N(C)c2cccnc21 [Entry 2012] | – | – | – | – | IC50 [1, 10]: > 1000 nM; IC50 (WT RT (HIV-1 RT); wild type RT, read-out: IC50 WT RT): < 100 nM; IC50 ([2]; read-out: IC50 V106A): > 1000 nM; IC50 ([3]; read-out: IC50 Y188L): > 1000 nM
CCN1c2ncc(CCOc3ccc(CC(=O)O)c4c3CCCC4)cc2C(=O)N(C)c2cccnc21 [Entry 5006] | 100 to 1000 | < 100 | > 1000 | > 1000 | –
CCN1c2ncc(CCOc3ccc(/C=C(\C)C(=O)O)c4ccccc34)cc2C(=O)Nc2c(C)cc(F)nc21 [Entry 1041] | 100 to 1000 | < 100 | 100 to 1000 | > 1000 | –
CCN1c2ncc(CCOc3ccc(/C=C/C(=O)O)c4ccccc34)cc2C(=O)N(C)c2cccnc21 [Entry 2013] | – | – | – | > 1000 | IC50 [1, 6]: 100 to 1000 nM; IC50 ([2]; read-out: IC50 V106A): > 1000 nM
CCN1c2ncc(CCOc3cccc4c3CCCN4CC(=O)O)cc2C(=O)N(C)c2cccnc21 [Entry 6001] | > 1000 | < 100 | > 1000 | > 1000 | EC50 [4, 8]: 100 to 1000 nM
CCN1c2ncc(CCOc3cccc4c(S(N)(=O)=O)cccc34)cc2C(=O)N(C)c2cccnc21 [Entry 2004] | < 100 | < 100 | 100 to 1000 | 100 to 1000 | –
CCN1c2ncc(CCOc3ccc(CCC(=O)O)c4ccccc34)cc2C(=O)Nc2c(C)ccnc21 [Entry 1024] | > 1000 | < 100 | 100 to 1000 | > 1000 | –
CCN1c2ncc(CCOc3ccc(CC(C)C(=O)O)c4ccccc34)cc2C(=O)N(C)c2ccc(F)nc21 (stereo not shown) [Entry 1043] | 100 to 1000 | < 100 | > 1000 | > 1000 | –
CCN1c2ncc(CCOc3ccc(C(=O)O)c4ccccc34)cc2C(=O)Nc2c(C)ccnc21 [Entry 1005] | 100 to 1000 | < 100 | 100 to 1000 | > 1000 | –
CCN1c2ncc(CCOc3ccc(CCC(=O)O)c4ccccc34)cc2C(=O)N(C)c2cccnc21 [Entry 2011] | – | – | – | – | IC50 [1, 10]: 100 to 1000 nM; IC50 ([2]; read-out: IC50 V106A): > 1000 nM; IC50 ([3]; read-out: IC50 Y188L): > 1000 nM; EC50 ([4]; wild type, read-out: EC50 WT RT): < 100 nM; EC50 ([5]; K103N/Y181C double mutant, read-out: EC50 K103N/Y181C): 100 to 1000 nM
